These results are taken from PubChem BioAssay (NCI).

Test systems include 786-0 renal; ACHN renal; K-562 leukemia; NCI-H23 lung; RXF 393 renal; SK-OV-3 ovarian; SN12C renal; UACC-62 melanoma; SR leukemia; PC-3 prostate.
What all share (assay): NCI tumour cell line growth inhibition, 48 h

Molecules are shown by their SMILES. Several values for one entry are separate records, joined by “and”; a condition that tells them apart may be missing. Equal values may be shown once.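 Tested at 5 concentrations; 48 h exposure; 96-well plates; endpoints linearly interpolated, else capped at highest concentration. Abbreviation: GI50, concentration required for 50% inhibition of growth. The concentration for full growth arrest is given as TGI.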

`CC(=O)Nc1ccc(C(=O)NN2C(=O)C(Cl)C2c2ccccc2)cc1` (stereo not given): the TGI in the assay on 786-0 renal, in the assay with ACHN renal, in the assay with K-562 leukemia, with NCI-H23 lung, in the assay on RXF 393 renal and in the assay with SK-OV-3 ovarian was above 100 µM each time. For the same compound, the TGI in the assay with SN12C renal and in the assay with UACC-62 melanoma was above 100 µM in each case.

Consider `O=[N+]([O-])c1nccn1CC(O)c1ccc(F)cc1` (stereo not given), for which the TGI in the assay with 786-0 renal, in the assay on ACHN renal, in the assay with K-562 leukemia, in the assay with NCI-H23 lung, in the assay with RXF 393 renal and in the assay on SK-OV-3 ovarian was above 100 µM throughout. Also, the TGI in the assay with SN12C renal and in the assay with UACC-62 melanoma was above 100 µM each time.

`CCOC(=O)Oc1c(OC)cc(C(=O)NC2CCc3cc(OC)c(OC)c(OC)c3-c3ccc(SC)c(=O)cc32)cc1OC` (stereo not given): the GI50 in the assay with 786-0 renal is 0.023 µM; with ACHN renal, 0.235 µM; in the assay on NCI-H23 lung, below 0.007 µM; with SK-OV-3 ovarian, 0.00717 µM; in the assay on SN12C renal, 0.0136 µM; with UACC-62 melanoma it was 0.00881 µM. For the same compound, the TGI with 786-0 renal was 13 µM; in the assay on ACHN renal it was above 70 µM; with K-562 leukemia it was 0.774 µM; in the assay with NCI-H23 lung it was 0.266 µM and 0.0388 µM; with SK-OV-3 ovarian, 0.466 µM and 0.0553 µM; in the assay on SN12C renal it was 25.2 µM. In addition, the TGI in the assay with SR leukemia was below 0.007 µM; in the assay on UACC-62 melanoma it was above 70 µM.

On to `Cc1ccc(SC(C)/C=C/NNC2=NC(c3ccccc3)C(c3ccccc3)=NN2)cc1` (stereo not given), for which the TGI in the assay with 786-0 renal, in the assay on ACHN renal, with K-562 leukemia, in the assay on NCI-H23 lung, in the assay with SK-OV-3 ovarian and in the assay with SN12C renal was above 100 µM in each case. Besides, the TGI in the assay with SR leukemia is 65.1 µM; in the assay on UACC-62 melanoma, 48.7 µM.

Take `Cc1ccccc1N1C(=O)/C(=C/c2ccc(N(CCC#N)CCC#N)cc2)N=C1c1cc([N+](=O)[O-])ccc1Cl`: the TGI in the assay with 786-0 renal, with ACHN renal, in the assay with K-562 leukemia, in the assay with NCI-H23 lung, with SK-OV-3 ovarian and in the assay on SN12C renal was above 100 µM in each case. The TGI in the assay on SR leukemia and in the assay with UACC-62 melanoma was above 100 µM each time.

Turning to `CCOC(=O)/C=C/C(C(=O)/C=C/c1ccc(OC2CCCCO2)c(OC)c1)=C(O)\C=C\c1ccc(OC2CCCCO2)c(OC)c1` (stereo not given), the GI50 in the assay on 786-0 renal is 4.96 µM; with ACHN renal, 3.61 µM; in the assay with K-562 leukemia, 2.62 µM; in the assay on NCI-H23 lung it was 5.9 µM; in the assay on PC-3 prostate, 3.85 µM; in the assay with RXF 393 renal, 2.21 µM. Besides, the GI50 was 23.1 µM in the assay with SK-OV-3 ovarian, 2.16 µM in the assay with SN12C renal and 3.02 µM with UACC-62 melanoma. Also, the TGI in the assay on 786-0 renal is 20.3 µM; in the assay on ACHN renal it was 12.5 µM; with K-562 leukemia it was 75 µM; in the assay with NCI-H23 lung, 18.7 µM; in the assay with PC-3 prostate, above 100 µM; in the assay on RXF 393 renal, 5.68 µM. For the same compound, the TGI is above 100 µM in the assay on SK-OV-3 ovarian, 4.96 µM in the assay with SN12C renal and 12.8 µM with UACC-62 melanoma.

As to `Ic1ccc(Nc2nc3nonc3nc2Nc2ccc(I)cc2)cc1`, the GI50 was 0.332 µM with 786-0 renal; 0.269 µM with ACHN renal; 0.091 µM with K-562 leukemia; 0.186 µM in the assay on PC-3 prostate; 0.23 µM in the assay on SK-OV-3 ovarian. Further, the TGI was above 100 µM with 786-0 renal; above 100 µM in the assay on ACHN renal; above 100 µM with K-562 leukemia; above 100 µM with PC-3 prostate; 0.741 µM with SK-OV-3 ovarian.

In the case of `COc1ccc(OC)c(NC(=O)C(=O)NNC(=O)c2sc(NNC(C)=O)nc2C)c1`, the TGI was above 100 µM with 786-0 renal; 96.1 µM with ACHN renal; 43.1 µM in the assay on K-562 leukemia; 68.8 µM with NCI-H23 lung; above 100 µM in the assay on SK-OV-3 ovarian; above 100 µM in the assay with SN12C renal. In addition, the figures for the TGI in the assay on SR leukemia and in the assay with UACC-62 melanoma were above 100 µM and 81.5 µM, respectively.

As to `CCCCN(CCCC)CC(C(=O)Nc1ccc([N+](=O)[O-])cc1[N+](=O)[O-])/C(C)=N\NC(=S)NN` (stereo not given), the TGI in the assay on 786-0 renal, in the assay with ACHN renal, in the assay on K-562 leukemia, in the assay with NCI-H23 lung, in the assay on RXF 393 renal and in the assay on SK-OV-3 ovarian was above 100 µM each time. This compound registered a TGI in the assay with UACC-62 melanoma above 100 µM.

`CC1=CC(/C=C(\C)CCCc2ccoc2)C2(OC(=O)C(C)=C2O)[C@H]2C1CC[C@@H]2C` (stereo not given in full): the TGI in the assay with 786-0 renal is 32.2 µM; in the assay on ACHN renal, 76.4 µM; in the assay with K-562 leukemia, above 100 µM; in the assay on NCI-H23 lung it was 67.2 µM; in the assay on RXF 393 renal, 60.5 µM; with SK-OV-3 ovarian, 69 µM. Also, the TGI came out at 60.8 µM in the assay with SN12C renal and 37.5 µM with UACC-62 melanoma.

For the compound `O=[n+]1c2c(n([O-])c3ccccc31)CCCCCCCCCC2`, the TGI in the assay with 786-0 renal, in the assay with ACHN renal, in the assay on K-562 leukemia, in the assay on NCI-H23 lung, in the assay on SK-OV-3 ovarian and in the assay with SN12C renal was above 100 µM in each case. Moreover, the TGI with SR leukemia and in the assay with UACC-62 melanoma was above 100 µM throughout.

In the case of `CC1OC2CC(=O)OC2C2=C1C(=O)c1c(O)cccc1C2=O` (stereo not given), the GI50 was 0.149 µM with 786-0 renal; 0.0299 µM in the assay on ACHN renal; 0.0298 µM in the assay on K-562 leukemia; 0.142 µM in the assay on NCI-H23 lung; 0.242 µM in the assay with PC-3 prostate; 0.0195 µM with RXF 393 renal. Further, the GI50 with SK-OV-3 ovarian was 1.34 µM; in the assay with SN12C renal, 0.116 µM; with UACC-62 melanoma it was 0.135 µM. Also, the TGI in the assay with 786-0 renal is 0.292 µM; with ACHN renal, 0.0992 µM; in the assay with K-562 leukemia, above 100 µM; in the assay with NCI-H23 lung, 0.426 µM; in the assay on PC-3 prostate it was 0.965 µM; with RXF 393 renal it was 0.0499 µM. Further, the results for the TGI with SK-OV-3 ovarian, in the assay on SN12C renal and with UACC-62 melanoma were 2.67 µM, 0.259 µM and 0.287 µM, respectively.

With `CNCCNc1c2c(c(NCCNC)c3c(CN(C)C)c[nH]c13)C(=O)c1ccccc1C2=O`, the GI50 was 4.87 µM in the assay on 786-0 renal; 3.52 µM in the assay with ACHN renal; 1.81 µM with K-562 leukemia; 2.22 µM with NCI-H23 lung; 0.969 µM in the assay with PC-3 prostate; 2.5 µM in the assay with RXF 393 renal. Also, the GI50 is 17.1 µM in the assay with SK-OV-3 ovarian, 0.788 µM in the assay with SN12C renal and 2.78 µM in the assay with UACC-62 melanoma. In addition, the TGI with 786-0 renal was 19.5 µM; in the assay on ACHN renal it was 14.4 µM; with K-562 leukemia it was above 100 µM; in the assay on PC-3 prostate, 5.64 µM; in the assay on RXF 393 renal, 11 µM; in the assay with SK-OV-3 ovarian, 50.8 µM. The TGI with SN12C renal was 7.47 µM; in the assay on UACC-62 melanoma, 19.7 µM.
